Source: patent US20090318491A1 (priority 2006, published 2009)

Legend:
α3β4* nAChR = biological target: T1, α3β4* nAChR (Bos taurus, UniProt Q07263+Q8SPU6); assay: biochemical; format: binding, calf
T1 construct: 100 μL of the calf adrenal membrane protein fraction (60-70 μg); from tissue; host or cells: calf adrenals, membrane fraction
Procedure: Preparation of Calf Adrenals
Frozen calf adrenals (−80° C.) were placed on ice for 30-60 min and allowed to thaw slowly before they were cut into small pieces. After determination of the wet weight (4-6 g), the tissue was homogenised in HSS-buffer (Ultraturrax at 750 rpm). The homogenate was centrifuged (30,000×g, 10 min, 4° C.), the pellets collected and washed. This procedure was repeated five times. The buffer volume used to re-suspend the pellets was calculated on the basis of the wet weight in a ratio 1:6.5.
The prepared tissues were stored in aliquots at −80° C. One hour before the experiments the tissues were slowly thawed, homogenised in HSS-buffer and centrifuged (25,000×g, 20 min, 4° C.). The pellets were re-suspended in fresh HSS-buffer and used for radioligand binding assays.
Competition Assay Using (±)-[^3H]Epibatidine ([^3H]Epi) and Calf Adrenals Membrane Fraction (α3β4*nAChR)
Each assay sample, with a total volume of 500 μL contained 200 μL of the test compound, 100 μL of (±)-[^3H]epibatidine, 100 μL of the calf adrenal membrane protein fraction (60-70 μg) and 100 μM of HSS-buffer. Non-specific binding was determined in the presence of 300 μM (−)-nicotine tartrate salt. The samples were homogenised and incubated for 90 min at 22° C. The incubation was terminated by vacuum filtration through glass fibre filters presoaked in 1% poly(ethyleneimine). The filters were rinsed three times with TRIS-buffer, punched out and transferred into 4 mL scintillation vials. The scintillation vials were filled with scintillation cocktail (2 mL) and the radioactivity was measured using a liquid scintillation counter.

α4β2* nAChR = biological target: T2, α4β2* nAChR (Rattus norvegicus, UniProt P09483+P12390); assay: biochemical; format: binding
T2 construct: Frozen rat brains were thawed slowly before the preparation of the P2 rat brain membrane fraction; from tissue; host or cells: rat brain (without cerebellum and medulla), P2 membrane fraction
Procedure: (§1) Preparation of Rat Brains
(§2) Frozen rat brains were thawed slowly before the preparation of the P2 rat brain membrane fraction (30-60 min on ice, afterwards at room temperature). […] After the determination of the wet weight (1.32 g on average), the brains were pressed into a pulp using a syringe and homogenised in saccharose buffer with a glass teflon homogenizator (Potter, 10 seconds). The tissue was then centrifuged (1,000×g, 20 min, 4° C.), the supernatant (S1) aspirated with a Pasteur pipette and stored on ice. The P1 pellet was re-suspended in saccharose buffer and the centrifugation was repeated. The supernatant S1′ was collected and added to the supernatant S1. The combined supernatants were centrifuged (25,000×g, 20 min, 4° C.), the supernatant S2 was removed and the pellet P2 collected and diluted with HSS-buffer. The buffer volume added was calculated on the basis of the wet weight in a ratio 1:2.
(§3) The final pellet was stored in aliquots at −80° C. On the day of the experiment, the P2 membrane fraction was thawed, diluted with HSS-buffer (30-fold volume), homogenised and centrifuged (35,000×g, 10 min, 4° C.). The collected pellet was suspended in HSS-buffer and used in the radioligand binding experiments.
Competition Assay Using (±)-[^3H]Epibatidine ([^3H]Epi) and Rat Brain P2-Fraction (α4β2*nAChR)
(§4) A dilution row of 6-9 concentrations of the test compound was prepared. Each assay sample, with a total volume of 500 μL contained 100 μL of the membrane protein (60 μg), 100 μL of (±)-[^3H]epibatidine (0.5 nM), 100 μL of HSS-buffer and 200 μL of the test compound Non-specific binding was determined in the presence of 300 μM (−)-nicotine tartrate salt. The samples were homogenised and incubated for 90 min at 22° C. The incubation was terminated by vacuum filtration through glass fibre filters pre-soaked in 1% poly(ethyleneimine). The filter were rinsed three times with TRIS-buffer, punched out and transferred into 4 mL scintillation vials. The scintillation vials were filled with scintillation cocktail (2 mL) and the radioactivity was measured using a liquid scintillation counter.
Assays were carried out in duplicate, triplicates or quadruplicates.
(§5) Biological evaluation of the compounds on various nicotinic actylcholine receptors (nAChRs) was conducted with cells described below. […] Functional agonist activity of the cytisines in cells using a fluorescence assay sensitive to changes in cytosolic calcium.

(α1)2β1γδ nAChR = biological target: T3, (α1)2β1γδ nAChR (Tetronarce californica, UniProt P02710+P02714+P02718); assay: biochemical; format: binding, Torpedo californica
T3 construct: 100 μL of the Torpedo californica electroplax fraction (60-70 μg); from tissue; host or cells: Torpedo californica electric organ (electroplax) membranes
Procedure: Preparation of Torpedo californica Electroplax
Frozen samples of Torpedo californica electric organ (−80° C.) were placed on ice for 30-60 min and allowed to thaw slowly before the membrane preparation. The tissue was homogenised in an ice-cold HSS-buffer (Ultraturrax at 750 rpm) and centrifuged (30,000×g, 10 min, 4° C.). The pellets were collected, washed four times with HSS-buffer through re-homogenization and centrifugation at the same settings. The remaining pellets were collected, re-suspended in HSS and stored in aliquots at −80° C.
One hour before the experiments the tissues were slowly thawed, homogenised in HSS-buffer and centrifuged (25,000×g, 20 min, 4° C.). The pellets were re-suspended in fresh HSS-buffer and used for radioligand binding assays.
Competition Assay Using (±)-[^3H]Epibatidine ([^3H]Epi) and Torpedo californica Electroplax ((α1)2β1γδ nAChR)
as §4, with “μL contained 200 μL” for “μL contained 100 μL of the membrane protein (60 μg), 100 μL of (±)-[^3H]epibatidine (0.5 nM), 100 μL of HSS-buffer and 200 μL”, “the test compound, 100 μL of (±)-[^3H]epibatidine and 100 μL of the Torpedo californica electroplax fraction (60-70 μg). Non-specific binding” for “the test compound Non-specific binding”, “poly(ethyleneimine). The filters were rinsed” for “poly(ethyleneimine). The filter were rinsed”
Assays were carried out in duplicates, triplicate or quadruplicates.
as §5

α7* nAChR = biological target: T4, α7* nAChR (Rattus norvegicus, UniProt Q05941); assay: Competition assay using [3H]methyllycaconitine and rat brain P2-fraction; format: binding; conditions: preliminary results; read-out: α7* [3H]MLA rat brain Ki
T4 construct: Frozen rat brains were thawed slowly before the preparation of the P2 rat brain membrane fraction; from tissue; host or cells: rat brain P2 membrane fraction
Procedure: as §1, §2, §3
Competition Assay Using [^3H]Methyllycaconitine ([^3H]MLA) and Rat Brain P2-Fraction (α7*nAChR)
A dilution row of 6-9 concentrations of the test compound was prepared. Each assay sample, with a total volume of 250 μL contained 50 μL of the test compound, 100 μL of [^3H]MLA and 100 μL of the P2-membrane protein fraction (60-70 μg). Non-specific binding was determined in the presence of 1 μM MLA. The samples were homogenised and incubated for 120 min at 22° C. The incubation was terminated by vacuum filtration through glass fibre filters pre-soaked in 1% poly(ethyleneimine). The filters were rinsed three times with TRIS-buffer, punched out and transferred into 4 mL scintillation vials. The scintillation vials were filled with scintillation cocktail (2 mL) and the radioactivity was measured using a liquid scintillation counter.
Assays were carried out in duplicates, triplicates or quadruplicates.

T4 sequence (Q05941 23-502): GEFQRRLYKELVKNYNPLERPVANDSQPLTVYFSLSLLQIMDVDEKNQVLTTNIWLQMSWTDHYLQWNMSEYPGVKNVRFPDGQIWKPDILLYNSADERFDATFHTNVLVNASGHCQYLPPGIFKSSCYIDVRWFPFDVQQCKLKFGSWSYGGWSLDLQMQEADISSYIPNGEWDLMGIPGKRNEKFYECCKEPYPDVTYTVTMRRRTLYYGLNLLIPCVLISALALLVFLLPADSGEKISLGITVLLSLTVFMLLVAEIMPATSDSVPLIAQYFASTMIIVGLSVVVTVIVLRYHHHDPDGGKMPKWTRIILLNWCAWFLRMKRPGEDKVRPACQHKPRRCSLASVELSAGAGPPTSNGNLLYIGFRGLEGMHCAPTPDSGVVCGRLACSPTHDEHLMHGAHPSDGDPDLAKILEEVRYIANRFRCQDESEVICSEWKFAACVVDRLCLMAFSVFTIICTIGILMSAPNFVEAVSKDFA
T2 sequence (P12390 25-500): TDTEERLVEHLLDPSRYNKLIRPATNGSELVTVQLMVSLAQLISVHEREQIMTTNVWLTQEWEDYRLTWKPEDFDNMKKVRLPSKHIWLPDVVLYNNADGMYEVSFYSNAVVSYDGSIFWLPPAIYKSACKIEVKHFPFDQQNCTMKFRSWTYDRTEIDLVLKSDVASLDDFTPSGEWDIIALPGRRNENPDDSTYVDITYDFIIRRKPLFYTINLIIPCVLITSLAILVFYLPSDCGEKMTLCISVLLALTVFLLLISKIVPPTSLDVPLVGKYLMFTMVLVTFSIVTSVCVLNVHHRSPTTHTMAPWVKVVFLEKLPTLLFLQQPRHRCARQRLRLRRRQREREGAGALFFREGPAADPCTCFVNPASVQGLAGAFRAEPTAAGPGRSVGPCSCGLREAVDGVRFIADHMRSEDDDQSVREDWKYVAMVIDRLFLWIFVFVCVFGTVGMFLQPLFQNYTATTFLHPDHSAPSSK
T2 sequence (P09483 31-630): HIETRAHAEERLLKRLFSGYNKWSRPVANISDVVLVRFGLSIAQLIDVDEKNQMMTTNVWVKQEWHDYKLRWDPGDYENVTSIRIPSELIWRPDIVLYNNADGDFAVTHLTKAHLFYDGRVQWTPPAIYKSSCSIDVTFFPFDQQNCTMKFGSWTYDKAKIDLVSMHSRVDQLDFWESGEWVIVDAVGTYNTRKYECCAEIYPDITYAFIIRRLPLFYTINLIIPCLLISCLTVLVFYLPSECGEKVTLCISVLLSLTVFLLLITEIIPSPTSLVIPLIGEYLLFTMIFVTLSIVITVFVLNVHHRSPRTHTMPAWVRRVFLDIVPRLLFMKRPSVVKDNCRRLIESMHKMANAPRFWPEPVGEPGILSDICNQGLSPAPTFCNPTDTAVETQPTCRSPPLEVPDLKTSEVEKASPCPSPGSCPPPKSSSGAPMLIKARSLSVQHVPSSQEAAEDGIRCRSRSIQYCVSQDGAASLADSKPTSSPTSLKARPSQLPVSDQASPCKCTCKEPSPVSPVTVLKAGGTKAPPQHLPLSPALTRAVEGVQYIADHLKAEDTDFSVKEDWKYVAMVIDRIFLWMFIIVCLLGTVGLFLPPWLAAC
T3 sequence (P02710 25-461): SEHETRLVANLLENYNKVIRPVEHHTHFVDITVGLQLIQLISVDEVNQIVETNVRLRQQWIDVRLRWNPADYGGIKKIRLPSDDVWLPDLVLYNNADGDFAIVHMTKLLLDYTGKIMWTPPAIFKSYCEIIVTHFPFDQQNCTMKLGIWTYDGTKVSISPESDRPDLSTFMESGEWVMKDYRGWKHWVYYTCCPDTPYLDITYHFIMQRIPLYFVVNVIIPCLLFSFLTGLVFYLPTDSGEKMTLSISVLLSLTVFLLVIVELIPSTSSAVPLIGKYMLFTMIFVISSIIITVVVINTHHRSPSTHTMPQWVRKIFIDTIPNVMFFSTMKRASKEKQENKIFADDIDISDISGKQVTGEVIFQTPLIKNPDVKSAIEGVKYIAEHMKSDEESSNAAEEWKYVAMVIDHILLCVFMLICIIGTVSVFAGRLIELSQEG
T3 sequence (P02712 25-493, further chain): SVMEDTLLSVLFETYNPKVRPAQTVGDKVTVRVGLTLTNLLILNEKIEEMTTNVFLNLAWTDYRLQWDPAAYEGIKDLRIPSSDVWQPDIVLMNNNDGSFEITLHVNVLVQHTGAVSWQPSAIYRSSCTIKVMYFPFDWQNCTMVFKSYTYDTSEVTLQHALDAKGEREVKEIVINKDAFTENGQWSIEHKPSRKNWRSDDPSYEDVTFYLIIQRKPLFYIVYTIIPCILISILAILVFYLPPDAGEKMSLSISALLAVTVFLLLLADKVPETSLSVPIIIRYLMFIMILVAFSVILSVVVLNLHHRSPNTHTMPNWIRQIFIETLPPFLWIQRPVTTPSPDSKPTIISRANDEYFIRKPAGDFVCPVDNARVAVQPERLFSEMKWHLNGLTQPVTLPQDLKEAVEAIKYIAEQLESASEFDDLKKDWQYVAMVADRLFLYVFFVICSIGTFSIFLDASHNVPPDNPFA
T3 sequence (P02718 22-522): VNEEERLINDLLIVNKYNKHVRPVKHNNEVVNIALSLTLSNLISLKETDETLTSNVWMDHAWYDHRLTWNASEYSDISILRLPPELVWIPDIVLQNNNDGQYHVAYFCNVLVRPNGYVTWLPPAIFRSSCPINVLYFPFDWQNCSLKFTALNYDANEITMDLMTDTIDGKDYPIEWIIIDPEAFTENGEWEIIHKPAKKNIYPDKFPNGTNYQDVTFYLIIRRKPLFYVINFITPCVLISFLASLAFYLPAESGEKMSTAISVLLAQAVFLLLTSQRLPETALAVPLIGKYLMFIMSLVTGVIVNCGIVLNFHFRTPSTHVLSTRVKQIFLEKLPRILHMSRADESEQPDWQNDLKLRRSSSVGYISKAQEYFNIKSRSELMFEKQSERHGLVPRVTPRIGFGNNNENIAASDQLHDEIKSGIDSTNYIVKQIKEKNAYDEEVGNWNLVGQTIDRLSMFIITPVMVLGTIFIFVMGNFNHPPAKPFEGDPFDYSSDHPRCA
T3 sequence (P02714 18-506): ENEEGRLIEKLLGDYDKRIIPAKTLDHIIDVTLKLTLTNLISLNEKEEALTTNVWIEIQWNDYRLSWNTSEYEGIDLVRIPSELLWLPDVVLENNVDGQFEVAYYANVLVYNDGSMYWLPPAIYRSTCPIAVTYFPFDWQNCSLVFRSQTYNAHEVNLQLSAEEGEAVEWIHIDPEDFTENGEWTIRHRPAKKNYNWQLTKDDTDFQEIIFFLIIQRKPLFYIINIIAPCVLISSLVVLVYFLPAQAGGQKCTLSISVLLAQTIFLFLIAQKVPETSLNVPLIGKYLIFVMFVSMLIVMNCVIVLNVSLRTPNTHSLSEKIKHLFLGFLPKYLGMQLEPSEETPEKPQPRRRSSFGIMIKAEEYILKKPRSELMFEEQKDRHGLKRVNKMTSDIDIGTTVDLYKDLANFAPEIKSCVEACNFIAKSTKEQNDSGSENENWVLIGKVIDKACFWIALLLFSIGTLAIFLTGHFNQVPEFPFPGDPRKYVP
T1 sequence (Q07263 22-495): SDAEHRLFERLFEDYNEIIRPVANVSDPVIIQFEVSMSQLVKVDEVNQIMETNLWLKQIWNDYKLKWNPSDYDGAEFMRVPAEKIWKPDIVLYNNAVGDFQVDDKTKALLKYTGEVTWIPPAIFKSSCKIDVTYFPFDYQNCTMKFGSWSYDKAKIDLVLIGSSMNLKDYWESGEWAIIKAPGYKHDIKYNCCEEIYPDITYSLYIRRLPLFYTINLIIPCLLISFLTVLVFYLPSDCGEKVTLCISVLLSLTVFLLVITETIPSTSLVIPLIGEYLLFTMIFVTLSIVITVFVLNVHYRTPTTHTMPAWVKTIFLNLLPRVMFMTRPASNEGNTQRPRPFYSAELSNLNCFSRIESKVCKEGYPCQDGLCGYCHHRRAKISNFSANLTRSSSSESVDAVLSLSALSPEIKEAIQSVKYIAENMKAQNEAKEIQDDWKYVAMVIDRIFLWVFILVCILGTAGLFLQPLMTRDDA
T1 sequence (Q8SPU6 20-496): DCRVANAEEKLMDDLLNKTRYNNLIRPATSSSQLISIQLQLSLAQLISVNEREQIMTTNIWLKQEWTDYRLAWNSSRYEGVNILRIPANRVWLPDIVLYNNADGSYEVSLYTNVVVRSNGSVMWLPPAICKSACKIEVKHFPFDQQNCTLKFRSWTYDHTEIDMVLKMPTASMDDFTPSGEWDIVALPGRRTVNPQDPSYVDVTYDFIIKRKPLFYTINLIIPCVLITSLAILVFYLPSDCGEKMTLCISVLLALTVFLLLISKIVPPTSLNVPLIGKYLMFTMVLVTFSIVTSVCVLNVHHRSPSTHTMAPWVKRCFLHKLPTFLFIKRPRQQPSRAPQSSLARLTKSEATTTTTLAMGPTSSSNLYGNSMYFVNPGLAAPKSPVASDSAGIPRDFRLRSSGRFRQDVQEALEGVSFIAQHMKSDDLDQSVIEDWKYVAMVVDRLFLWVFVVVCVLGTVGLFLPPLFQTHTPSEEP

| Structure (SMILES) | Ki (α3β4* nAChR) [µM] | Ki (α4β2* nAChR) [µM] | Ki ((α1)2β1γδ nAChR) [µM] | Ki (α7* nAChR) [µM] |
| --- | --- | --- | --- | --- |
| O=c1c(-c2cccc(C(F)(F)F)c2)ccc2n1C[C@@H]1CNC[C@H]2C1 [96e, 3-(3′-Trifluoromethyl-phenyl)-cytisine] | 3.7 | 0.0083 | > 10 | > 10 |
| O=c1c(-c2ccncc2)ccc2n1C[C@@H]1CNC[C@H]2C1 [120e, 3-(Pyridin-4′-yl)-cytisine] | – | – | > 10 | – |
| O=c1c(-c2ccccc2)cc(Br)c2n1C[C@@H]1CNC[C@H]2C1 [128e, 5-Bromo-3-phenyl-cytisine] | > 5 | 0.131 | > 10 | > 10 |
| Cc1cccc(-c2ccc(=O)n3c2[C@H]2CNC[C@H](C2)C3)c1 [105e, 5-(3′-Methyl-phenyl)-cytisine] | > 10 | 0.024 | > 10 | > 10 |
| O=c1c(-c2cccc([N+](=O)[O-])c2)ccc2n1C[C@@H]1CNC[C@H]2C1 [94e, 3-(3′-Nitro-phenyl)-cytisine] | > 2 | 0.023 | > 10 | > 10 |
| O=c1c(-c2cccnc2)ccc2n1CC1CNCC2C1 (centres unmarked) [119e, 3-(Pyridin-3′-yl)-cytisine] | – | – | – | > 10 |
| O=c1ccc(-c2cccc(Cl)c2)c2n1C[C@@H]1CNC[C@H]2C1 [108e, 5-(3′-Chloro-phenyl)-cytisine] | > 10 | 0.17 | > 10 | > 10 |
| Cn1cc(-c2ccc(=O)n3c2[C@H]2CNC[C@H](C2)C3)cn1 [126e, 5-(1-Methyl-1H-pyrazol-4′-yl)-cytisine] | 0.656 | 0.0022 | > 10 | > 10 |
| O=c1c(-c2cccc(OC(F)(F)F)c2)ccc2n1C[C@@H]1CNC[C@H]2C1 [97e, 3-(3′-Trifluoromethoxy-phenyl)-cytisine] | > 10 | 0.067 | > 10 | > 10 |
| O=c1ccc(-c2cccc([N+](=O)[O-])c2)c2n1C[C@@H]1CNC[C@H]2C1 [104e, 5-(3′-Nitro-phenyl)-cytisine] | 0.481 | 0.0037 | > 10 | > 10 |
| Cn1cc(-c2ccc3n(c2=O)CC2CNCC3C2)cn1 (centres unmarked) [122e, 3-(1-Methyl-1H-pyrazol-4′-yl)-cytisine] | 0.033 | 0.000177 | > 5 | > 10 |
| Cc1cccc(-c2ccc3n(c2=O)C[C@@H]2CNC[C@H]3C2)c1 [95e, 3-(3′-Methyl-phenyl)-cytisine] | > 10 | 0.028 | > 10 | > 10 |
| O=c1ccc(-c2ccc3c(c2)OCO3)c2n1C[C@@H]1CNC[C@H]2C1 [124e, 5-(3′,4′-Methylenedioxy-phenyl)-cytisine] | > 10 | 0.096 | > 10 | > 10 |
| O=c1ccc(-c2cccc(C(F)(F)F)c2)c2n1C[C@@H]1CNC[C@H]2C1 [106e, 5-(3′-Trifluoromethyl-phenyl)-cytisine] | > 10 | 0.055 | > 10 | > 10 |
| O=c1c(-c2cccc(Cl)c2)ccc2n1C[C@@H]1CNC[C@H]2C1 [98e, 3-(3′-Chloro-phenyl)-cytisine] | > 10 | 0.199 | > 10 | > 10 |
| O=c1ccc(-c2ccccc2)c2n1C[C@@H]1CNC[C@H]2C1 [103e, 5-Phenyl-cytisine] | > 10 | 0.045 | > 10 | > 10 |
| O=c1ccc(-c2cccc(OC(F)(F)F)c2)c2n1C[C@@H]1CNC[C@H]2C1 [107e, 5-(3′-Trifluoromethoxy-phenyl)-cytisine] | > 10 | 0.023 | > 10 | > 10 |
| O=c1c(-c2ccccc2)ccc2n1C[C@@H]1CNC[C@H]2C1 [93e, 3-Phenyl-cytisine] | > 10 | – | > 10 | – |
| O=c1ccc(-c2cccnc2)c2n1C[C@@H]1CNC[C@H]2C1 [125e, 5-(Pyridin-3′-yl)-cytisine] | 4.3 | 0.0109 | > 10 | > 10 |
| O=c1c(-c2cccc3cccnc23)ccc2n1C[C@@H]1CNC[C@H]2C1 [121e, 3-Quinolin-8′-yl-cytisine] | > 10 | 0.095 | > 10 | > 10 |
| O=c1c(-c2cccc(-c3ccccc3)c2)ccc2n1C[C@@H]1CNC[C@H]2C1 [100e, 3-(Biphenyl-3′-yl)-cytisine] | > 10 | 0.2 | > 10 | > 10 |
| O=c1c(-c2cccnc2)ccc2n1CC1CNCC2C1 (centres unmarked) [drawing 100] | – | 0.00091 | > 10 | – |
| O=c1ccc(-c2ccc3[nH]ccc3c2)c2n1C[C@@H]1CNC[C@H]2C1 [123e, (1H-Indol-5′-yl)-cytisine] | > 10 | 0.0204 | > 10 | > 10 |
| O=c1c(-c2ccc3[nH]ccc3c2)ccc2n1C[C@@H]1CNC[C@H]2C1 [117e, 3-(1H-Indol-5′-yl)-cytisine] | > 10 | 0.853 | > 10 | > 10 |
| O=c1ccc(-c2cccc(-c3ccccc3)c2)c2n1C[C@@H]1CNC[C@H]2C1 [110e, 5-(Biphenyl-3′-yl)-cytisine] | > 10 | 0.19 | > 10 | > 10 |
| O=c1c(-c2cccc(F)c2)ccc2n1C[C@@H]1CNC[C@H]2C1 [99e, 3-(3′-Fluoro-phenyl)-cytisine] | 1.2 | 0.0057 | > 10 | > 10 |
| O=c1c(-c2cccnc2)cc(Br)c2n1C[C@@H]1CNC[C@H]2C1 [129e, 5-Bromo-3-(pyridin-3′-yl)-cytisine] | > 2 | 0.092 | > 10 | > 10 |
| O=c1c(-c2ccc3c(c2)OCO3)ccc2n1C[C@@H]1CNC[C@H]2C1 [118e, 3-(3′,4′-Methylenedioxy-phenyl)-cytisine] | > 10 | – | > 10 | – |
| O=c1ccc(-c2cccc(F)c2)c2n1C[C@@H]1CNC[C@H]2C1 [109e, 5-(3′-Fluoro-phenyl)-cytisine] | > 2 | 0.3 | > 10 | > 10 |
